{"source": "patent US9567367B2", "about": "“Synthetic peptides for treatment of bacterial infections” (priority 2012, dated 2017)", "key": {"E. coli strain 018:K1": {"test_system": "E. coli strain 018:K1", "assay": "E. coli peritonitis, survival", "type": "in vivo, BALB/c mice"}, "S. pyogenes": {"test_system": "S. pyogenes", "design": "species or system BALB/c mice", "details": "mouse, in vivo"}, "Streptococcus pneumoniae": {"test_system": "Streptococcus pneumoniae", "type": "in vivo, BALB/c mice", "details": "ceftriaxone alone 1 mg/kg i.p. (suboptimal) at 24 hours post infection", "description": "Treatment with the peptide D-Ala-p2TA was adjunct to antibiotic treatment, and was given at a delayed time point, when the infection was already established.\nWhen the animals are treated with ceftriaxone alone, administered intraperitoneal (i.p.) at a suboptimal dose of LD25 (1 mg/kg), given at 24 hours after the infection, survival rates increased to 20%. However, when the peptide D-Ala-p2TA (at 5 mg/kg) was given in combination with the antibiotics, 24 hours post infection, substantial increase in survival, to 50%, was detected (see FIG. 17).\nThe correlation between survival benefit and different doses of the peptide D-Ala-p2TA was investigated when the S. pneumoniae infected animals (n=10) received a combination of a fixed dose of antibiotics (ceftriaxone, at a suboptimal dose of 1 mg/kg, administered i.p.) and different doses of the peptide D-Ala-p2TA, given 2 minutes after antibiotic treatment at 24 hours post infection. Under these experimental conditions (see FIG. 18), non-treated mice died rapidly, starting at day 2, and by day 3, all animals were already dead. Antibiotic treatment alone did provide a minor change in survival, bringing it to 20%."}, "polymicrobial infection": {"test_system": "polymicrobial infection", "assay": "Cecal ligation and puncture (CLP) polymicrobial infection, survival", "type": "in vivo, mice", "details": "moxifloxacin alone, high dose (LD90) at 12 hours post CLP"}, "[1]": {"details": "in vivo"}}, "note": "Read-outs that look alike come from different tables or passages of the source. Square brackets hold non-standard residues; d marks the D form. Ends that are not written are not given here."}
{"molecule": "CO/N=C(\\C(=O)N[C@@H]1C(=O)N2C(C(=O)[O-])=C(C[N+]3(C)CCCC3)CS[C@H]12)c1csc(N)n1", "note": "[cefepime]", "values": [{"measurement": "overall survival", "setting": "E. coli strain 018:K1; cefepime alone, suboptimal 5 mg/kg i.m. 4 hours after challenge", "value": 20, "unit": "%"}]}
{"molecule": "CO/N=C(\\C(=O)N[C@@H]1C(=O)N2C(C(=O)O)=C(CSc3nc(=O)c(=O)[nH]n3C)CS[C@H]12)c1csc(N)n1", "note": "[ceftriaxone]", "values": [{"measurement": "survival", "setting": "S. pyogenes", "value": 70, "unit": "%"}, {"measurement": "survival", "setting": "Streptococcus pneumoniae", "value": 20, "unit": "%"}]}
{"molecule": "COc1c(N2C[C@@H]3CCCN[C@@H]3C2)c(F)cc2c(=O)c(C(=O)O)cn(C3CC3)c12", "note": "[moxifloxacin]", "values": [{"measurement": "survival rate", "setting": "polymicrobial infection", "value": 22, "unit": "%"}]}
{"molecule": "CSCC[C@H](NC(=O)[C@@H]1CCCN1C(=O)[C@@H](N)CO)C(=O)N[C@@H](CC(C)C)C(=O)N[C@H](C(=O)N[C@@H](C)C(=O)N[C@@H](Cc1ccc(O)cc1)C(=O)N[C@@H](CC(=O)O)C(=O)O)C(C)C", "note": "[p2TA, SPMLVAYD]", "values": [{"measurement": "half-life", "setting": "[1]", "value": "1 to 2.6", "unit": "min"}]}
{"molecule": "H-D-Ala-Ser-Pro-Met-Leu-[U-^14C]Val-Ala-Tyr-Asp-D-Ala-OH [[^14C]-D-Ala-p2TA]", "values": [{"measurement": "time of peak accumulation in lymphatic organs (lymph nodes)", "setting": "5 mg/kg single i.v., radioactivity", "value": 20, "unit": "min"}, {"measurement": "ratio of lymph nodes to plasma", "setting": "4 minutes post infusion", "value": "greater than 1"}, {"measurement": "ratio of radioactivity in spleen compared to plasma", "setting": "20 min after injection", "value": 6, "unit": "fold"}, {"measurement": "levels in lymph nodes vs plasma", "setting": "20 minutes", "value": 22, "unit": "fold"}, {"measurement": "levels in lymph nodes vs plasma", "setting": "24 hours post dosing", "value": "greater than 3 fold"}, {"measurement": "ratio of radioactivity in spleen compared to plasma", "setting": "24 hours post injection", "value": 3, "unit": "fold"}, {"measurement": "levels in lymph nodes vs plasma", "setting": "for 2 hours", "value": "more than 5 fold"}, {"measurement": "start of accumulation in lymphatic organs", "setting": "post injection, 5 mg/kg single i.v.", "value": 4, "unit": "min"}]}
{"molecule": "[dA]ASMDYPVL[dA] [scrambled peptide]", "values": [{"measurement": "survival rate", "setting": "E. coli strain 018:K1; scrambled peptide control", "value": "comparable to the saline treated control"}]}
